Measured values from PMC10167348, “Structural mechanisms of TRPM7 activation and inhibition” (Nature Communications, 2023).
“And” between values parts separate entries of the source, which are not always exact repeats. Equal entries are not always repeated.

Key:
[1] = biological target: T1, TRPM7-N1098Q (Mus musculus, UniProt Q923J1, N1098Q); experiment: Aequorin-based Ca2+ influx assay, inhibition of TRPM7-mediated Ca2+ influx; assay type: cell-based
T1 construct: expressed in transfected cells; host or cells: HEK 293T
T1 sequence (Q923J1 whole entry N1098Q): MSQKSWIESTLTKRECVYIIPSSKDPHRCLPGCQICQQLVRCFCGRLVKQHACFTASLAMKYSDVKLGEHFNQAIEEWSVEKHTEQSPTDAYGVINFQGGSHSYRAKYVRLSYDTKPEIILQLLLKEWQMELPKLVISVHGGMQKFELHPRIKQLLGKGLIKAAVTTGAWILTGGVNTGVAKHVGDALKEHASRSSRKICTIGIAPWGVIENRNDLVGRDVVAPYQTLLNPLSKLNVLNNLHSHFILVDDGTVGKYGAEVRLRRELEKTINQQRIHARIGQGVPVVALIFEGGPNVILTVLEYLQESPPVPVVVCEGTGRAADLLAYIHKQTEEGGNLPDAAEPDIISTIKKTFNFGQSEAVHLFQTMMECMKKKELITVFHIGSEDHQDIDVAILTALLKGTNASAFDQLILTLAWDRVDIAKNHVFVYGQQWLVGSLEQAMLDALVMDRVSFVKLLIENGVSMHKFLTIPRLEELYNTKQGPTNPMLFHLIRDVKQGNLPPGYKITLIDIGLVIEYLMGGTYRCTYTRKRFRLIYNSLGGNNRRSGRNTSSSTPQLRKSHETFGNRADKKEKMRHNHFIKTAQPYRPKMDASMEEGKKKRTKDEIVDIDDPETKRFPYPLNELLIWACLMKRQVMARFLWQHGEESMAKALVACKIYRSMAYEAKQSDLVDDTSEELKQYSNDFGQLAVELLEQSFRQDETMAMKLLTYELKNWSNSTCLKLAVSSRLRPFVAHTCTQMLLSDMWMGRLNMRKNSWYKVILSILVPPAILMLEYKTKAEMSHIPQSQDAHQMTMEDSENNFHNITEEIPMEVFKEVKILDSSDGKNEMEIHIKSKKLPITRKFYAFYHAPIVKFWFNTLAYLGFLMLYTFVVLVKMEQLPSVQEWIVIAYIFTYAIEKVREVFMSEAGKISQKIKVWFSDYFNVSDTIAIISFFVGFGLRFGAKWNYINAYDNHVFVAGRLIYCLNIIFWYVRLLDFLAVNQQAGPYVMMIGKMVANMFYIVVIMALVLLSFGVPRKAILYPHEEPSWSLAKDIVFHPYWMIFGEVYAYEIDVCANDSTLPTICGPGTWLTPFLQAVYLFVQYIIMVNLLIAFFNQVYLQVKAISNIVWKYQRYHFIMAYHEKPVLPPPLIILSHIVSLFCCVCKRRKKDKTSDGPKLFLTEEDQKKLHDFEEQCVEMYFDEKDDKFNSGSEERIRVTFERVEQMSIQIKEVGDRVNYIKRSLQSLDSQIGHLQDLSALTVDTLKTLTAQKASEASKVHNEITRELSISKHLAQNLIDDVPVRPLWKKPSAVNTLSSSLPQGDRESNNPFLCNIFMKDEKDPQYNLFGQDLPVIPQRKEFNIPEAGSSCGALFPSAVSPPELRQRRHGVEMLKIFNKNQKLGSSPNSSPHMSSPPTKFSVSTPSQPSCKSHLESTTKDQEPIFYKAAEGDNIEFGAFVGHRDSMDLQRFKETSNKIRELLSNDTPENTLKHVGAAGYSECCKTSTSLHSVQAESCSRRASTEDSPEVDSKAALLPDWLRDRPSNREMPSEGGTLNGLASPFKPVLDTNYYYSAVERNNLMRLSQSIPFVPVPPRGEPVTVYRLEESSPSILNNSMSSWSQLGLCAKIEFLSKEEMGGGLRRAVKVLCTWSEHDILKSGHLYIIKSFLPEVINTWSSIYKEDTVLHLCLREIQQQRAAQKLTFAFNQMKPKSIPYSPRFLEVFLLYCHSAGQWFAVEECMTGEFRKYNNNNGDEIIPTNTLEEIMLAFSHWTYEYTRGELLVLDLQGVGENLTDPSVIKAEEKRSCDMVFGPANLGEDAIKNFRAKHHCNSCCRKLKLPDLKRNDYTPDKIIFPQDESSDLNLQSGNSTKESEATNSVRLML
Method: (§1) Measurements of [Ca^2+]i were performed as reported previously with several modifications[2],[52],[54]. HEK 293T cells (mycoplasma test negative, ATCC #CRL3216) were maintained at 37 °C and 5% CO2 in DMEM supplemented with 10% fetal calf serum, 100 µg/ml streptomycin and 100 U/ml penicillin (all from Thermo Fisher Scientific). Cells cultured in six-well plates (~60% confluence) were transfected with 2 µg/dish Trpm7 plasmid DNA and 0.1 µg/dish pG5A plasmid DNA encoding eGFP fused to Aequorea victoria aequorin, using Lipofectamine 2000 (Thermo Fisher Scientific). Twenty-four hours after transfection, the cells were washed with Mg^2+-free HEPES-buffered saline (Mg^2+-free HBS) containing 140 mM NaCl, 6 mM KCl, 0.5 mM CaCl2, 10 mM HEPES (pH 7.4) and 5 mM glucose, and mechanically resuspended in the Mg^2+-free HBS. For reconstitution of aequorin, cell suspensions were incubated with 5 µM coelenterazine (Biaffin GmbH) in the Mg^2+-free HBS for 30 min at room temperature. Cells were washed twice by centrifugation at 600 rpm for 5 min (Heraeus Pico 17 microcentrifuge, Thermo Fisher Scientific), resuspended in the Mg^2+-free HBS and aliquoted into 96-well plates (1 × 10^5 cells per well). Luminescence was detected at room temperature using a FLUOstar OPTIMA microplate reader (BMG LABTECH GmbH). To monitor the NS8593- and VER155008-induced inhibition of TRPM7-mediated Ca^2+ influx, the extracellular concentration of Ca^2+ was increased to 5 mM by injecting the CaCl2-containing Mg^2+-free HBS in the absence or presence of the inhibitors. […] To study activation by naltriben, TRPM7-transfected cells were exposed to Mg^2+-free HBS containing different concentrations of the agonist. The experiments were terminated by lysing cells with 0.1% (v/v) Triton X-100 in the Mg^2+-free HBS to record the total bioluminescence. The bioluminescence rates (counts/s) were analyzed at 1-s intervals and calibrated as [Ca^2+]i values using the following equation:1 p[Ca^2+]i=0.332588(−log(k))+5.5593 where k represents the rate of aequorin consumption, i.e., counts/s divided by the total number of counts.
(§2) To determine the IC50 values for NS8593 and VER155008 (EC50 for naltriben), the data were fitted with the following logistic equation:2 Ec=Emin+Emax+Emin/1+c^h/IC50^h where E(c) is the functional effect at the concentration c of the compound, Emin is the minimal effect, Emax is the maximal effect, IC50 (EC50) is the concentration of the compound that produces the half-maximal effect, and h is the Hill coefficient. Fitting of dose-response curves was performed using GraphPad Prism 8.4.0. Data are presented as the mean ± SEM.

[2] = biological target: T2, TRPM7-A981L (Mus musculus, UniProt Q923J1, A981L); experiment: as above; assay type: cell-based
T2 construct: expressed in transfected cells; host or cells: HEK 293T
T2 sequence (Q923J1 whole entry A981L): as the sequence (Q923J1 whole entry N1098Q) above, with A981L, Q1098N counted along it
Method: as §1, §2

[3] = Solubility of the compound (authors' remark); details: mM range could not be examined
[4] = system: TRPM7-N1098Q; set-up: method as in Schmidt et al., 2022, PMID: 35389104; details: ref Schmidt et al., 2022, PMID: 35389104; cited from earlier work
[5] = biological target: T3, TRPM7-M741A (Mus musculus, UniProt Q923J1, M741A); experiment: Aequorin-based Ca2+ influx assay, activation by naltriben; assay type: cell-based; details: for TRPM7 activation, fold: replicate values
T3 construct: expressed in transfected cells; host or cells: HEK 293T
T3 sequence (Q923J1 whole entry M741A): as the sequence (Q923J1 whole entry N1098Q) above, with M741A, Q1098N counted along it
Method: as §1, §2

[6] = biological target: T4, TRPM7-L671A (Mus musculus, UniProt Q923J1, L671A); experiment: as above; assay type: cell-based
T4 construct: expressed in transfected cells; host or cells: HEK 293T
T4 sequence (Q923J1 whole entry L671A): as the sequence (Q923J1 whole entry N1098Q) above, with L671A, Q1098N counted along it
Method: as §1, §2

[7] = biological target: T5, TRPM7-S744A (Mus musculus, UniProt Q923J1, S744A); experiment: as above; assay type: cell-based
T5 construct: expressed in transfected cells; host or cells: HEK 293T
T5 sequence (Q923J1 whole entry S744A): as the sequence (Q923J1 whole entry N1098Q) above, with S744A, Q1098N counted along it
Method: as §1, §2

[8] = biological target: T6, TRPM7-N752K (Mus musculus, UniProt Q923J1, N752K); experiment: as above; assay type: cell-based
T6 construct: expressed in transfected cells; host or cells: HEK 293T
T6 sequence (Q923J1 whole entry N752K): as the sequence (Q923J1 whole entry N1098Q) above, with N752K, Q1098N counted along it
Method: as §1, §2

[9] = biological target: T7, TRPM7-L671A/N752K (Mus musculus, UniProt Q923J1, L671A/N752K); experiment: as above; assay type: cell-based
T7 construct: expressed in transfected cells; host or cells: HEK 293T
T7 sequence (Q923J1 whole entry L671A/N752K): as the sequence (Q923J1 whole entry N1098Q) above, with L671A, N752K, Q1098N counted along it
Method: as §1, §2

[10] = biological target: T8, TRPM7-D670A (Mus musculus, UniProt Q923J1, D670A); experiment: as above; assay type: cell-based; details: for TRPM7 activation, fold: replicate values
T8 construct: expressed in transfected cells; host or cells: HEK 293T
T8 sequence (Q923J1 whole entry D670A): as the sequence (Q923J1 whole entry N1098Q) above, with D670A, Q1098N counted along it
Method: as §1, §2

[11] = biological target: T9, TRPM7 WT (Mus musculus, UniProt Q923J1); experiment: as above; assay type: cell-based; details: for TRPM7 activation, fold: replicate values
T9 construct: expressed in transfected cells; host or cells: HEK 293T
T9 sequence (Q923J1 whole entry): as the sequence (Q923J1 whole entry N1098Q) above, with Q1098N counted along it
Method: as §1, §2

c1ccc2c(c1)CCC[C@H]2Nc1nc2ccccc2[nH]1 [NS8593]
remaining activity at 0.3 µM ([1]; N1097Q (so in the source), [NS8593] 0.3 µM, replicate values, read-out: TRPM7 activity, 100%): 90.4% | remaining activity at 0.5 µM ([1]; N1097Q (so in the source), [NS8593] 0.5 µM, replicate values, read-out: TRPM7 activity, 100%): 95% | remaining activity at 0.7 µM ([1]; N1097Q (so in the source), [NS8593] 0.7 µM, replicate values, read-out: TRPM7 activity, 100%): 87.7% | remaining activity at 1 µM ([1]; N1097Q (so in the source), [NS8593] 1.0 µM, replicate values, read-out: TRPM7 activity, 100%): 82.4% | remaining activity at 5 µM ([1]; N1097Q (so in the source), [NS8593] 5.0 µM, replicate values, read-out: TRPM7 activity, 100%): 64.3% | remaining activity at 7 µM ([1]; N1097Q (so in the source), [NS8593] 7.0 µM, replicate values, read-out: TRPM7 activity, 100%): 59.4% | remaining activity at 10 µM ([1]; N1097Q (so in the source), [NS8593] 10.0 µM, replicate values, read-out: TRPM7 activity, 100%): 43.2% | TRPM7 activity, 100% ([1]; N1097Q (so in the source), [NS8593] 50.0 µM, replicate values): 0.0% | remaining activity at 50 µM ([1]; N1097Q (so in the source), [NS8593] 50.0 µM, replicate values, read-out: TRPM7 activity, 100%): 0% | Hill coefficient ([1]; N1098Q, antagonist, mean ± SEM): –0.93 ± 0.20 | IC50 ([1]; N1098Q, antagonist, mean ± SEM): 20.5 ± 10.7 µM | remaining activity at 0.3 µM ([2]; [NS8593] 0.3 µM, replicate values, read-out: TRPM7 activity, 100%): 105% | remaining activity at 0.7 µM ([2]; [NS8593] 0.7 µM, replicate values, read-out: TRPM7 activity, 100%): 114% | remaining activity at 1 µM ([2]; [NS8593] 1.0 µM, replicate values, read-out: TRPM7 activity, 100%): 112% | remaining activity at 3 µM ([2]; [NS8593] 3.0 µM, replicate values, read-out: TRPM7 activity, 100%): 99.4% | Hill coefficient ([2]; antagonist, mean ± SEM): –1.61 ± 0.45 | IC50 ([2]; antagonist, mean ± SEM): 11.6 ± 2.75 µM

Oc1ccc2c3c1O[C@H]1c4oc5ccccc5c4C[C@@]4(O)[C@@H](C2)N(CC2CC2)CC[C@]314 [Naltriben, naltriben]
solubility [3]: limited solubility | response of the N1098Q variant to the agonist [4]: did not respond | EC50 [5]: 85 ± 6.51 µM | TRPM7 activation, fold ([5]; M741A, [Naltriben] 10 µM): 0.99 fold and 1.09 fold and 1.07 fold (2×) | TRPM7 activation, fold ([5]; M741A, [Naltriben] 20 µM): 1.10 fold and 1.30 fold and 1.28 fold and 1.20 fold | TRPM7 activation, fold ([5]; M741A, [Naltriben] 30 µM): 1.39 fold and 1.61 fold and 1.52 fold and 1.40 fold | TRPM7 activation, fold ([5]; M741A, [Naltriben] 40 µM): 1.53 fold and 1.69 fold and 1.74 fold and 1.64 fold | TRPM7 activation, fold ([5]; M741A, [Naltriben] 50 µM): 1.77 fold and 2.03 fold and 1.91 fold and 1.96 fold | TRPM7 activation, fold ([5]; M741A, [Naltriben] 100 µM): 2.28 fold and 2.65 fold and 2.56 fold and 2.47 fold | TRPM7 activation, fold ([5]; M741A, [Naltriben] 200 µM): 2.83 fold and 3.14 fold and 3.02 fold and 2.90 fold | TRPM7 activation, fold ([5]; M741A, [Naltriben] 300 µM): 3.11 fold and 3.30 fold and 3.34 fold and 3.20 fold | TRPM7 activation, fold ([5]; M741A, [Naltriben] 400 µM): 3.18 fold and 3.51 fold and 3.48 fold and 3.46 fold | TRPM7 activation, fold ([5]; M741A, [Naltriben] 500 µM): 3.39 fold and 3.58 fold (2×) and 3.45 fold | Hill coefficient ([5]; M741A, agonist, mean ± SEM): 1.37 ± 0.11 | EC50 [6]: 145 ± 22.9 µM | Hill coefficient ([6]; L671A, agonist, mean ± SEM): 1.68 ± 0.32 | EC50 [7]: 71.8 ± 9.7 µM | Hill coefficient ([7]; S744A, agonist, mean ± SEM): 1.48 ± 0.25 | EC50 [8]: 191 ± 18 µM | Hill coefficient ([8]; N752K, agonist, mean ± SEM): 1.91 ± 0.24 | EC50 [9]: 230 ± 48.9 µM | Hill coefficient ([9]; N752K/ L671A, agonist, mean ± SEM): 2.82 ± 1.38 | EC50 [10]: 117 ± 32.4 µM | TRPM7 activation, fold ([10]; D670A, [Naltriben] 10 µM): 1.01 fold and 1.02 fold and 1.12 fold | TRPM7 activation, fold ([10]; D670A, [Naltriben] 20 µM): 1.24 fold and 1.22 fold and 1.21 fold | TRPM7 activation, fold ([10]; D670A, [Naltriben] 30 µM): 1.55 fold and 1.37 fold (2×) | TRPM7 activation, fold ([10]; D670A, [Naltriben] 40 µM): 1.67 fold and 1.48 fold and 1.56 fold | TRPM7 activation, fold ([10]; D670A, [Naltriben] 50 µM): 2.45 fold and 1.56 fold and 1.72 fold | TRPM7 activation, fold ([10]; D670A, [Naltriben] 100 µM): 2.45 fold and 2.03 fold and 2.05 fold | TRPM7 activation, fold ([10]; D670A, [Naltriben] 200 µM): 3.19 fold and 2.69 fold and 2.68 fold | TRPM7 activation, fold ([10]; D670A, [Naltriben] 300 µM): 3.34 fold and 3.00 fold and 2.98 fold | TRPM7 activation, fold ([10]; D670A, [Naltriben] 400 µM): 3.55 fold and 3.27 fold and 3.16 fold | TRPM7 activation, fold ([10]; D670A, [Naltriben] 500 µM): 3.71 fold and 3.18 fold and 3.31 fold | Hill coefficient ([10]; D670A, agonist, mean ± SEM): 1.17 ± 0.24 | EC50 [11]: 65.8 ± 12.4 µM | TRPM7 activation, fold ([11]; WT, [Naltriben] 100 µM): 3.40 fold and 2.89 fold and 2.30 fold and 2.40 fold and 3.03 fold and 3.14 fold | TRPM7 activation, fold ([11]; WT, [Naltriben] 200 µM): 4.23 fold and 3.70 fold and 3.66 fold and 2.99 fold and 3.63 fold and 3.89 fold | TRPM7 activation, fold ([11]; WT, [Naltriben] 300 µM): 4.35 fold and 3.85 fold and 3.80 fold and 3.47 fold and 3.56 fold and 4.23 fold | TRPM7 activation, fold ([11]; WT, [Naltriben] 400 µM): 4.51 fold and 3.90 fold and 3.86 fold and 3.52 fold and 3.70 fold and 4.17 fold | TRPM7 activation, fold ([11]; WT, [Naltriben] 500 µM): 4.41 fold and 4.17 fold and 4.05 fold and 3.42 fold and 4.20 fold and 4.10 fold | Hill coefficient ([11]; WT, agonist, mean ± SEM): 1.23 ± 0.25
